Source: patent US20240299504A1, “COMPOSITIONS AND METHODS FOR TREATING ALZHEIMERS DISEASE” (priority 2023, published 2024)

Legend:
osteocalcin = assay: Serum osteocalcin ELISA (bone formation marker); format: in vivo, mouse; details: 6-MO female 5×FAD vs control mice; 50 μg/Kg s.c. intermittent
Description: (§1) Parathyroid hormone (human) was purchased from TOCRIS Bioscience (Cat #3011/1, Abingdon, United Kingdom). WT or 5×FAD mice (both male and female) were treated with PTH1-34 intermittently [once daily injection of hPTH1-34 (50 μg/Kg) or vehicle (0.9% sodium chloride) (as a control) by subcutaneous injection, starting at 2-MO, 5 days per week] as described previously. Mice were then subjected to behavioral tests and sacrificed for examinations of their bone and brain phenotypes at the indicated ages.
(§2) Submandibular blood collection was performed in anesthetized mice. A swift lancing motion is used to puncture the vessel. Blood sample (up to 200 μl) was collected with a pipette or other collection tube, allowed to stand at room temperature for 30 min and centrifuged for 15 min at 3000 rpm. Supernatant serum was aliquot and frozen at −80° C. until use. Mouse serum levels of osteocalcin (a marker for bone formation), PYD (pyridinoline, a marker for bone resorption), and PTH were measured using mouse osteocalcin Elisa kit (QUIDEL Corporation), METRA Serum PYD EIA kit (QUIDEL Corporation, San Diego, CA, USA), and mouse PTH Elisa kit (MyBioSource), respectively, following the manufacturers' instruction.

[1] = system: proinflammatory cytokines and chemokines; assay: qRT-PCR of proinflammatory cytokines and chemokines in cortex and hippocampus; format: in vivo, mouse; details: 6-MO 5×FAD female mice
Description: as §1
Total RNA was extracted from cortex, hippocampus, or cultured astrocytes using a TRizol reagent (Invitrogen, cat #15596-026, Carlsbad, CA, USA) as previously described. Purified RNA (1-5 μg) was used for cDNA synthesis with the Revert Aid First Strand cDNA Synthesis Kit (Thermo Scientific, cat #K1621, Waltham, MA, USA). The cDNA products were subjected to subsequent quantitative PCR (qPCR) using the QuantiFast SYBR Green PCR Kit (QIA-GEN, cat #204057, Hilden, Germany) with a qPCR System (StepOne Plus). Each sample was repeated at least 3 times, and the mRNA level was normalized to GAPDH using the 2^−ΔΔCt method.

[2] = system: primary cultured astrocytes from WT and 5×FAD pups; assay: PTH1-34 induced signaling in primary cultured astrocytes (Western blot); format: cell-based, mouse; details: 100 ng/ml PTH1-34, time course
Description: Total proteins from cortex, hippocampus, or cultured astrocytes were extracted using RIPA lysis buffer [50 mM Tris-HCl (pH7.5), 150 mM NaCl, 1 mM EDTA, 1% v/v NP-40, 0.1% SDS, 1% sodium deoxycholate supplemented with Protease Inhibitor Cocktail (Roche) and 1 mM PMSF] and analyzed by Western Blot. Lysates were cleared by centrifugation at 12,000 g for 15 min at 4° C. to remove debris and to obtain homogenates. Homogenates samples were resolved by SDS-PAGE (8˜15%) gels and then electroblotted onto nitrocellulose membranes (Cat #1620112, Bio-Rad Laboratories). Membranes were blocked with 5% BSA (w/v) in TBS-Tween (50 mM Tris, 150 mM NaCl, pH7.6 and 0.1% v/v Tween-20) for 1 h and then probed with indicated primary antibodies overnight in 4° C. Membranes were washed with TBST 4 times and incubated with HRP-conjugated secondary antibodies (1:5000 in TBST) at room temperature for 1 h. After washing with TBST 3 times, antibody reactivity was detected by the Enhanced Chemiluminescence (ECL) detection system (Amersham Biosciences). Band density of proteins was normalized in relation to loading control and analyzed using NIH ImageJ software. Primary anti-bodies used were as follows: IBA1 (ab178846, rabbit), p16 (ab51243, rabbit), p53 (ab131442, rabbit), and anti-beta Actin (ab8226, mouse) from Abcam (Cambridge, MA, USA); GFAP (12389, rabbit), p-CREB (Ser133) (9198S, rabbit), p-AKT(S473) (4060P, rabbit), AKT (9272S, rabbit) and GAPDH (97166S, mouse) from Cell Signaling (Danvers, MA, USA); PTH1R (PA5-77,689, rabbit) from Invitrogen (Carlsbad, CA, USA); p-ERK1/2 (sc-136521, mouse) and ERK1/2 (sc-514302, mouse) from Santa Cruz Biotechnology (Santa Cruz, CA, USA).
Astrocyte culture was performed according to the standard protocol with some modifications as described in previous literature. In brief, the cerebral cortex and hippocampus of postnatal day 3 (P3) female pups were dissected under a stereomicroscope and placed in ice-cold calcium- and magnesium-free HBSS (Hanks Balanced Salt Solution). […]

PYD (pyridinoline) = assay: Serum PYD ELISA (bone resorption marker); format: in vivo, mouse; details: 6-MO female 5×FAD mice, compared to WT controls; 50 μg/Kg s.c. intermittent
Description: as §1, §2

5×FAD mice = assay: Novel object recognition (NOR); format: in vivo, mouse
Description: as §1
Mice (female and male) at the age of ˜5-MO were subjected to behavioral studies. The experimental procedures are described as previously. […] The total arm entries and the number of tri-ads were recorded to quantify the percentage of spontaneous alternation. For novel object recognition (NOR), which tests mouse's memory ability for a novel object, 20 min were recorded to analyze the time to explore the old object vs. the new object of each mouse. […] During test trials, one of the objects was replaced with a new object and mice were free to explore for another 20 min, and the time spent exploring the new object and the old object was recorded. The discrimination index is quantified as the novelty object preference, which is the time spent exploring the new object minus the time exploring the old object over the total exploration time.

## CC[C@H](C)[C@H](NC(=O)[C@H](CCC(=O)O)NC(=O)[C@H](CO)NC(=O)[C@@H](NC(=O)[C@@H](N)CO)C(C)C)C(=O)N[C@@H](CCC(N)=O)C(=O)N[C@@H](CC(C)C)C(=O)N[C@@H](CCSC)C(=O)N[C@@H](Cc1cnc[nH]1)C(=O)N[C@@H](CC(N)=O)C(=O)N[C@@H](CC(C)C)C(=O)NCC(=O)N[C@@H](CCCCN)C(=O)N[C@@H](Cc1cnc[nH]1)C(=O)N[C@@H](CC(C)C)C(=O)N[C@@H](CC(N)=O)C(=O)N[C@@H](CO)C(=O)N[C@@H](CCSC)C(=O)N[C@@H](CCC(=O)O)C(=O)N[C@@H](CCCN=C(N)N)C(=O)N[C@H](C(=O)N[C@@H](CCC(=O)O)C(=O)N[C@@H](Cc1c[nH]c2ccccc12)C(=O)N[C@@H](CC(C)C)C(=O)N[C@@H](CCCN=C(N)N)C(=O)N[C@@H](CCCCN)C(=O)N[C@@H](CCCCN)C(=O)N[C@@H](CC(C)C)C(=O)N[C@@H](CCC(N)=O)C(=O)N[C@@H](CC(=O)O)C(=O)N[C@H](C(=O)N[C@@H](Cc1cnc[nH]1)C(=O)N[C@@H](CC(N)=O)C(=O)N[C@@H](Cc1ccccc1)C(=O)O)C(C)C)C(C)C [PTH1-34]
osteocalcin
  serum osteocalcin levels: increased serum osteocalcin levels more in 5×FAD mice than that in control mice
[1]; cortex and hippocampus
  expression of upregulated inflammatory cytokines or chemokines (RT-qPCR): largely brought down to nearly normal levels
[1]; cortex
  expression of GM-CSF, RANKL and OPG (RT-qPCR): unaffected
[2]
  p-AKT protein level: little effect
  p-CREB protein level: increases p-CREB
  p-ERK protein level: little effect
PYD (pyridinoline)
  serum PYD levels: little to no effect on serum PYD levels in 5×FAD mice
5×FAD mice; 5×FAD female mice ~5-MO vs 5×FAD Veh, 50 μg/Kg s.c. intermittent
  NOR, recognition of the novel object (discrimination index): improved recognition of the novel object
5×FAD mice; 5×FAD male mice ~5-MO vs Veh
  NOR, cognitive function in novel object recognition: Little to no improvement
